{"source": "paper PMC9609173", "about": "“Preparation and Evaluation of [^18F]AlF-NOTA-NOC for PET Imaging of Neuroendocrine Tumors: Comparison to [^68Ga]Ga-DOTA/NOTA-NOC” (Molecules, 2022)", "key": {"[1]": {"test": "Determination of LogP (1-octanol/Dulbecco's PBS partition)", "assay_type": "physicochemical", "method": "Radiolabeled peptide (5 µL, 3–5 MBq) was added to Dulbecco’s PBS (495 µL) along with 1-Octanol (500 µL) in an Eppendorf tube. The tubes were vortexed for 5 min and centrifuged to separate phases. A volume of 10 µL of each phase was transferred to new Eppendorf tubes. The fractions were counted in an well counter (Atomlab 950) and LogP were calculated [[…]]."}, "AR42J xenograft": {"tested_on": "AR42J xenograft", "assay_type": "in vivo, mice", "method": "All animal experiments were planned and performed following the national legislation by the Animal Experiments Inspectorate in Denmark. Male SCID (severe combined immunodeficiency) mice (bred in-house, age 9–12 weeks) had access to water and chow ad libitum. Anesthesia with approximately 2% isoflurane in 100% oxygen was applied and the mice were inoculated subcutaneously in the left shoulder with 1 × 10^6 AR42J cells 12–15 days before the experiment (tumor weight 364 ± 58 mg). For biodistribution, the AR42J xenografted mice were injected in the tail vein with [^68Ga]Ga-NOTA-NOC (50.2 ± 5 pmol, 627 ± 116 kBq, n = 4), [^68Ga]Ga-DOTA-NOC (42.5 ± 6 pmol, 509 ± 24 kBq, n = 3), or [^18F]AlF-NOTA-NOC (47.0 ± 10 pmol, 1017 ± 279 kBq, n = 3 for each time point). After 1 or 3 h, the mice were sacrificed and the organs were collected and weighed. The organ radioactivities were quantified in an Atomlab 950 well spectrometer which was cross calibrated to a high-purity germanium detector. The tissue uptake of injected radioactivity was determined as a percentage of the applied total injected activity per gram, %IA/g.\nGraphPad Prism 6.07 was applied for statistical analysis and data fitting. One-way ANOVA and Bonferroni correction for multiple comparisons were applied for each organ. P values considered statistically significant were * p ≤ 0.05, ** p ≤ 0.01, *** p ≤ 0.001, and **** p ≤ 0.0001. The Student’s two-tailed t-test was applied for exploration statistics within a single organ-to-tumor comparison for one time point. Data are presented as the mean ± SEM."}}, "note": "Where a SMILES comes first, the peptide text is derived from it. Bridges are numbered along the chain shown (N, C = ends). [ ]: non-standard residue; d: D form. The star is where a group is joined. DOTA = O=C(O)CN1CCN(CC(=O)O)CCN(CC(=O)*)CCN(CC(=O)O)CC1; 1Nal = N[C@@H](Cc1cccc2ccccc12)C(=O)O; Thr(ol) = C[C@@H](O)[C@H](N)CO"}
{"smiles": "C[C@@H](O)[C@@H]1NC(=O)[C@H](CCCCN)NC(=O)[C@@H](Cc2c[nH]c3ccccc23)NC(=O)[C@H](Cc2cccc3ccccc23)NC(=O)[C@@H](NC(=O)[C@@H](Cc2ccccc2)NC(=O)CN2CCN(CC(=O)O)CCN(CC(=O)O)CCN(CC(=O)O)CC2)CSSC[C@@H](C(=O)N[C@H](CO)[C@@H](C)O)NC1=O", "note": "[[^68Ga]Ga-DOTA-NOC, metal not drawn, reference compound] ({DOTA}-[dF]C[1Nal][dW]KTC[Thr(ol)]; disulfide 2-7 (inferred))", "values": [{"measurement": "partition coefficient, LogP", "setting": "[1]", "result": "−1.42"}, {"measurement": "tumor-to-blood ratio, 1 h p.i.", "setting": "AR42J xenograft; AR42J xenograft mice", "result": 35}, {"measurement": "tumor-to-liver ratio, 1 h p.i.", "setting": "AR42J xenograft; AR42J xenograft mice", "result": 3.7}, {"measurement": "tumor uptake at 1 h p.i.", "setting": "AR42J xenograft; male SCID mice, subcutaneous AR42J xenograft, tail vein injection app. 45 pmol, n = 3-4, mean ± SEM", "result": "26.4 ± 10.8", "unit": "% ID/g"}]}
